Experimental findings from article PMC11270687 (ACS Omega, 2024) are described below.

The assay concerns PD3. The assay is classed as biochemical, Brucella anthropi.

Each structure is given as a SMILES string.

The term Km denotes the concentration of substrate that gives half-maximal velocity. In the case of `CCCC(=O)Oc1ccc([N+](=O)[O-])cc1` [p-nitrophenyl butyrate], the Km came out at 7.82 mM.
